Assays:
Type in all cases: cell-based, human
[1] = tested on: HT-29 cells; experiment: Cell growth by MTT assay in HT-29 cells
Description: Cell growth was measured by the cell growth determination kit MTT from Sigma (St. Louis, Mo.). The MTT assay measures the cell proliferation rate and reduction in cell viability. HT-29 or RKO cells (1×10^4/well) were plated in 96-well plates and treated with growth factors (all 100 ng/ml), SAMe (0.5 to 5 mM), MTA (0.5 to 1 mM), alone or in combination for 16 hrs in serum-free medium. To determine the effect of MAT2A RNAi on mitogen-induced changes in MTT, cells were first treated with RNAi for 48 hrs followed by mitogen treatment for another 24 hrs.

[2] = tested on: MAT2A; experiment: MAT2A mRNA levels by real-time PCR in HT-29 cells; conditions: for MAT2A expression: 6 hr treatment, HT-29 cells
Description: HT-29 and RKO cells were obtained from the Cell Culture Core of the USC Liver Disease Research Center and grown according to instructions provided by the American Type Culture Collection (ATCC, Rockville, Md.). Prior to treatment with growth factors, SAMe or MTA, medium was changed to 0.1% FBS overnight.
RNA interference (RNAi) experiments were performed using Lipofectamine RNAiMax (Invitrogen) according to the manufacturer's instructions. Small interfering RNA (siRNA) oligonucleotides for MAT2A and scrambled siRNA were synthesized by the USC Norris Comprehensive Cancer Center Microchemical Core Laboratory, and annealed to form duplexes. Stealth RNAi for MAT2A and Stealth RNAi negative control duplexes were synthesized by Invitrogen (Carlsbad, Calif.). The following siRNA sequences were used: si-MAT2A #1, 5′-[…]-3′ (sense) and 5′-[…]-3′ (antisense); si-control with scrambled sequence (negative control siRNA having no perfect matches to known human genes), 5′-[…]dTdT-3′ (sense) and 5% […]dTdT-3′ (antisense); stealth RNAi-MAT2A #5, 5′-[…]-3′ (sense) and 5′-[…]-3′ (antisense). […]
Total RNA was isolated by the EZgeno total RNA isolation kit (Genemega, San Giego, Calif.), and subjected to reverse transcription (RT) by using M-MLV Reverse transcriptase (Invitrogen). 2 μl of RT product was subjected to quantitative real-time PCR analysis. The primers and TaqMan probes for MAT2A, MAT2β and Universal PCR Master Mix were purchased from ABI (Foster City, Calif.). Hypoxanthine phosphoribosyl-transferase 1 (HPRT1) and ubiquitin C (UBC) were used as housekeeping genes (48). The thermal profile consisted of 1 cycle at 95° C. for 15 minutes followed by 40 cycles at 95° C. for 15 seconds and at 60° C. for 1 minute. The expression of MAT2A and MAT2β was checked by normalizing the Ct of MAT2A and MAT2β to that of the control housekeeping gene (HPRT1 or UBC) (49). The delta Ct obtained was used to find the relative expression of MAT genes according to the formula: Relative expression=2·^ΔCt, where ΔCt=ΔCt of MAT genes in colon cancer or treated cells—ΔCt of MAT genes in normal colon or control cells.

[3] = tested on: RKO cells; experiment: TRAIL-induced apoptosis in RKO cells (Annexin V with FACS); conditions: 24 hours
Description: FIG. 28. MTA sensitizes RKO cells to TRAIL-induced apoptosis. RKO cells were treated with 1 mM MTA, […] 5-FU, or 10 ng/ml TRAIL alone or in combination for 24 hours. Apoptosis was determined by Annexin V with FACS.

C[S+](CC[C@H](N)C(=O)O)C[C@H]1O[C@@H](n2cnc3c(N)ncnc32)[C@H](O)[C@@H]1O (some centres unmarked) [SAMe, S-adenosylmethionine]
growth ([1]; SAMe 5 mM, 24 hr): 71 % of control
growth, agent alone ([1]; SAMe 0.5 to 5 mM, MTA 0.5 to 1 mM, 16 hrs): no effect on growth
mitogenic action of leptin, EGF and IGF-1 ([1]; SAMe 0.5 to 5 mM, MTA 0.5 to 1 mM, 16 hrs, with growth factors): blocked the mitogenic action
MAT2A expression ([2]; 0.5 mM SAMe): 81 % baseline
MAT2A expression ([2]; 1 mM SAMe): 65 % baseline
MAT2A expression ([2]; 2 mM SAMe): 55 % baseline
MAT2A expression ([2]; 5 mM SAMe): 38 % of baseline
reduction of baseline expression of MAT2A ([2]; SAMe 5 mM or MTA 1 mM, 6 hrs, HT29 cells): 60%
IGF-1-mediated induction of MAT2A on co-treatment ([2]; co-treatment 3 hrs): blunted the IGF-1-mediated induction of MAT2A
leptin- or EGF-induced MAT2A expression on co-treatment ([2]; co-treatment with leptin (6 hrs) or EGF (3 hrs)): prevented the ability of these growth factors to induce MAT2A
TRAIL-induced apoptosis [3]: sensitized RKO cells to TRAIL-induced apoptosis
